Laboratory results published in ChEMBL document CHEMBL1201862, “PubChem BioAssay data set” (2004).
Calls of active or inactive are those of the source.

Legend:
[1] = molecular target: T1, Oxysterols receptor LXR-beta (Homo sapiens, UniProt P55055); format: functional, cell-based;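 note: agonist activity at LXR measured by a cell-based luminescence readout across a dose range, run as a counterscreen for daf-12 agonists; HEK293 cells with Gal4-LXR fusion and GAL4-driven luciferase reporter; potency for activation of Gal4-LXR reporter so compounds are agonists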
T1 sequence (P55055 whole entry): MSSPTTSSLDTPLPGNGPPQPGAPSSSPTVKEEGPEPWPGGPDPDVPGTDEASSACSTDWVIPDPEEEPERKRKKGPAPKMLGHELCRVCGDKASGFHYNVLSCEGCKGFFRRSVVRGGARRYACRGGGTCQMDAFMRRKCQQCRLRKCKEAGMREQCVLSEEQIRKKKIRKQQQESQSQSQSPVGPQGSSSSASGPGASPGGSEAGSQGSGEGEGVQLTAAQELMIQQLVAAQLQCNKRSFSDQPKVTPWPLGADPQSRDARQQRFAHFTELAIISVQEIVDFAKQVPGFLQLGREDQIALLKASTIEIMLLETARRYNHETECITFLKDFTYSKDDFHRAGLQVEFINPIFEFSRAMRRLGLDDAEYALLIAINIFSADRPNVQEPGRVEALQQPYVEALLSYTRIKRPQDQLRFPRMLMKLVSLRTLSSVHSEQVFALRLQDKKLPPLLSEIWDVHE

[2] = ADAM10 protease inhibitors, dose response, selectivity assay for ADAM17 exosite inhibitor project, biochemical, FRET peptide substrate, recombinant human ADAM10 (AID 743259);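 note: ADAM10 enzyme cleaving a FRET peptide substrate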
[3] = molecular target: Disintegrin and metalloproteinase domain-containing protein 17 (Homo sapiens, UniProt P78536); test: exosite inhibitors of ADAM17, dose response, biochemical (AID 743260)
[4] = molecular target: T2, Ubiquitin-conjugating enzyme E2 N (Homo sapiens, UniProt P61088); format: functional;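 note: Dose-response confirmation in a TR-FRET assay detecting UBC13-driven polyubiquitin chain formation, inhibition measured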
T2 sequence (P61088 whole entry): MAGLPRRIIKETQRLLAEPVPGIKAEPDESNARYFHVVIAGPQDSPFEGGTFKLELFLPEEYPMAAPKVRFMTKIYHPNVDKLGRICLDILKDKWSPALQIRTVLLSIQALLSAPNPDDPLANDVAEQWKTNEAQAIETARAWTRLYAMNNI

[5] = Luminescence Cell-Based Dose Response HTS to Identify Inhibitors of 5'UTR Stem-Loop Driven Prion Protein mRNA Translation in H4 Neuroglioblastoma Cells. [Related pubchem assays: 1827 (Project Summary), 1813 (Primary HTS)]; format: functional
[6] = molecular target: T3, Rac GTPase-activating protein 1 (Homo sapiens, UniProt Q9H0H5); test: MgcRacGAP GTPase-activating activity inhibitors, confirmation, biochemical, ADP Hunter fluorescence, primary and confirmatory (AID 624330); format: functional
T3 sequence (Q9H0H5 whole entry): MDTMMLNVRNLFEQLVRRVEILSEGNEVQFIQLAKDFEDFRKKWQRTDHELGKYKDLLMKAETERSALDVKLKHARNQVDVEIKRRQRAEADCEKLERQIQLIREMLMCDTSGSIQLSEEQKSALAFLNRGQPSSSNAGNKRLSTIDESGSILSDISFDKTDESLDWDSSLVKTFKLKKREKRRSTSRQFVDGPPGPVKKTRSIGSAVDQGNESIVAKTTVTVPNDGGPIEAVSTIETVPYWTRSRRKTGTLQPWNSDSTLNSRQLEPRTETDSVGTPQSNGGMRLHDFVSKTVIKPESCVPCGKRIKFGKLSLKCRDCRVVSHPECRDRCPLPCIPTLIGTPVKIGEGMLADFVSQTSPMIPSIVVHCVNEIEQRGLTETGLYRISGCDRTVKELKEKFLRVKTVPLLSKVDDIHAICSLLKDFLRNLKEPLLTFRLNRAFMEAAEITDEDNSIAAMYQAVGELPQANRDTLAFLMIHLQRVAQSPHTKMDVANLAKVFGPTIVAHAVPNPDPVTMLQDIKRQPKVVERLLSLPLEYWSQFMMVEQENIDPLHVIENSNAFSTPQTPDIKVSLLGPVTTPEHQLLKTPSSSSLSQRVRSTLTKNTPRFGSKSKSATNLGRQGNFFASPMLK

[7] = inhibitors of SNCA 5'UTR-driven reporter translation, confirmation, H4 neuroglioma cells, luminescence (AID 1988); format: functional, cell-based
[8] = HeLa cell cytotoxicity, dose response, cytotoxicity control for MgcRacGAP inhibitor project (AID 624300); format: functional
[9] = non-specific cell cytotoxicity, dose response, cytotoxicity control for PAX8 inhibitor project, plate reader, dry powder samples (AID 743021); format: functional, cell-based
Paired box protein Pax-8 = Paired box protein Pax-8 (Homo sapiens, UniProt Q06710); test: inhibitors of PAX8-driven TPO luciferase reporter, dose response, RMG-I cells, cherry-pick (AID 687027); format: functional, cell-based;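 note: luciferase reporter driven by Pax8 target thyroperoxidase promoter measured by SteadyGlo luminescence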
[10] = inhibitors of firefly luciferase expression or activity, dose response, H4 neuroglioma cells, luminescence (AID 1990); format: functional, cell-based
[11] = HEK293 cell cytotoxicity, dose response, cytotoxicity control, cherry-picks, set 5 (AID 1053117); format: functional, cell-based
[12] = miR-122 activators in hepatoma reporter cells, dose response, cell-based, Huh7 psiCHECK-miR122, Renilla luciferase, cherry-picked (AID 651956); format: functional;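 note: huh7 hepatoma cells stably carrying a psiCHECK-2 miR-122 sensor plasmid; renilla luciferase signal reporting endogenous miR-122 activity after 48 h compound exposure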
[13] = HEK293T cytotoxicity, dose response, cytotoxicity control for miR-122 modulator project, cell-based, activator set, cherry-pick (AID 720690); format: functional;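 note: HEK293T human cells scored for general mammalian cytotoxicity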
[14] = A549 cell cytotoxicity, dose response, cytotoxicity control, cherry-picks, 26 µM top dose (AID 1053119); format: functional, cell-based
[15] = inhibitors of non-replicating M. tuberculosis, dose response, luciferase, dry powder (AID 651620); format: functional; conditions: Mycobacterium tuberculosis
[16] = cytotoxicity in HeLa cells, dose response, cytotoxicity control, cell-based, plate reader, dry powder (AID 651946); format: functional
[17] = inhibitors of non-replicating M. tuberculosis, dose response, luciferase, dry powder (AID 651619); format: functional; conditions: Mycobacterium tuberculosis
[18] = molecular target: Endoplasmic reticulum aminopeptidase 1 (Homo sapiens, UniProt Q9NZ08); test: ERAP1 aminopeptidase inhibitors, dose response, biochemical, cherry-pick, set 2, plate reader (AID 743314)
[19] = molecular target: T4, DNA repair protein RAD52 homolog (Homo sapiens, UniProt P43351); format: functional, biochemical
T4 sequence (P43351 whole entry): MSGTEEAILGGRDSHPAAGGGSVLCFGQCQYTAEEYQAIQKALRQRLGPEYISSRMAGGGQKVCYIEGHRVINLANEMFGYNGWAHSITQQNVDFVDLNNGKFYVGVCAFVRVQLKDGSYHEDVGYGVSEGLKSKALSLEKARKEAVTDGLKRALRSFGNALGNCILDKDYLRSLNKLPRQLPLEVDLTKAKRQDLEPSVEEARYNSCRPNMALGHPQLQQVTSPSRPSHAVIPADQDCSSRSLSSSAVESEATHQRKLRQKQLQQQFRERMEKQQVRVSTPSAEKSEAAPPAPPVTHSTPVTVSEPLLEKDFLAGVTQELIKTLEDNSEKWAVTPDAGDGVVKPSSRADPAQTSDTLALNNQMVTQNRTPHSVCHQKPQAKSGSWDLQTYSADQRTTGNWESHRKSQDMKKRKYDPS

P388 = test: cells; format: functional; conditions: Mus musculus
[20] = molecular target: Tyrosyl-DNA phosphodiesterase 2 (Homo sapiens, UniProt O95551); test: human TDP2 enzyme inhibitors, dose response, biochemical, epi absorbance, IC50 (AID 743297)
SN12K1 = test: cells; format: functional; conditions: Homo sapiens
[21] = AlphaScreen signal interference compounds, dose response, artefact control for ARNT-TACC3 interaction inhibitor project, biochemical, luminescence, cherry-pick (AID 651705); format: functional;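 note: AlphaScreen bead proximity signal that flags compounds interfering with the detection technology; potency reflects signal decrease which marks the compound as an assay artifact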
[22] = molecular target: Dual specificity tyrosine-phosphorylation-regulated kinase 1A (Rattus norvegicus, UniProt Q63470); format: biochemical, Homo sapiens
P388/ADR = test: cells; format: functional; conditions: Mus musculus
Protein RecA = molecular target: T5, Protein RecA (Mycobacterium tuberculosis, UniProt P9WHJ3); test: Fluorescence Cell-Free Homogeneous Dose Retest to Identify Inhibitors of RecA-Intein Splicing Activity. [Related pubchem assays (depositor defined):AID2097, AID2223, AID489010, AID492950]; format: functional
T5 sequence (P9WHJ3 whole entry): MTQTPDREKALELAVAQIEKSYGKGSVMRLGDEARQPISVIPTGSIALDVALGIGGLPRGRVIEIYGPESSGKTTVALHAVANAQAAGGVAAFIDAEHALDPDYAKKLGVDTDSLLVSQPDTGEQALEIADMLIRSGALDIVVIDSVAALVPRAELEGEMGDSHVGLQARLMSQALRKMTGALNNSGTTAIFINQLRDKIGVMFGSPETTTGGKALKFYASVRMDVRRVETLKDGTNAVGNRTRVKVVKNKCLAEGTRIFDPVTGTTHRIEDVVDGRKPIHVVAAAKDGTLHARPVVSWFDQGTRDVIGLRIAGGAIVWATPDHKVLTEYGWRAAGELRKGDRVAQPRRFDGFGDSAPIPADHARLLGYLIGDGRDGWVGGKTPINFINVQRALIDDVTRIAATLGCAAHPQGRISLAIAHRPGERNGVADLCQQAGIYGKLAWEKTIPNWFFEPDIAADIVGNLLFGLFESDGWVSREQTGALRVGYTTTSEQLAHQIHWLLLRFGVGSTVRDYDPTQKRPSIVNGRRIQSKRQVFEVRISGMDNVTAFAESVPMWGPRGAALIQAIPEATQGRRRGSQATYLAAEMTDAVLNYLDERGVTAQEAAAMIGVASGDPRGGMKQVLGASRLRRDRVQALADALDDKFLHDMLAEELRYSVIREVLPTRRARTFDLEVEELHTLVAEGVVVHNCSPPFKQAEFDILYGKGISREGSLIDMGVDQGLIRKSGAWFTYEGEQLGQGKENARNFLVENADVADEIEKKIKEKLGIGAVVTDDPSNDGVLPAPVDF

Caspase-6 = molecular target: T6, Caspase-6 (Homo sapiens, UniProt P55212); test: human caspase-6 inhibitors, dose response, biochemical, VEID-R110 fluorescence, cherry-pick (AID 720632)
T6 sequence (P55212 whole entry): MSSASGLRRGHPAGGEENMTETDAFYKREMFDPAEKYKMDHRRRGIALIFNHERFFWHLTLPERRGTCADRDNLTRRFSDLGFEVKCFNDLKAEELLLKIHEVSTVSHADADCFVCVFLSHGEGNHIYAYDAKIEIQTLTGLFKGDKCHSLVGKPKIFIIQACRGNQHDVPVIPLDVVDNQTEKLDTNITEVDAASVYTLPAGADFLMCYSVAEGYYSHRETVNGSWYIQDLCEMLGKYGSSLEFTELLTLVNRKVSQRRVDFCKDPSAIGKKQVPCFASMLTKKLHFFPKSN

[23] = molecular target: T7, Replicative DNA helicase DnaB (Mycobacterium tuberculosis, UniProt P9WMR3); test: DnaB intein splicing inhibitors, dose response, biochemical, cell-free fluorescence (AID 449749); format: functional
T7 sequence (P9WMR3 whole entry): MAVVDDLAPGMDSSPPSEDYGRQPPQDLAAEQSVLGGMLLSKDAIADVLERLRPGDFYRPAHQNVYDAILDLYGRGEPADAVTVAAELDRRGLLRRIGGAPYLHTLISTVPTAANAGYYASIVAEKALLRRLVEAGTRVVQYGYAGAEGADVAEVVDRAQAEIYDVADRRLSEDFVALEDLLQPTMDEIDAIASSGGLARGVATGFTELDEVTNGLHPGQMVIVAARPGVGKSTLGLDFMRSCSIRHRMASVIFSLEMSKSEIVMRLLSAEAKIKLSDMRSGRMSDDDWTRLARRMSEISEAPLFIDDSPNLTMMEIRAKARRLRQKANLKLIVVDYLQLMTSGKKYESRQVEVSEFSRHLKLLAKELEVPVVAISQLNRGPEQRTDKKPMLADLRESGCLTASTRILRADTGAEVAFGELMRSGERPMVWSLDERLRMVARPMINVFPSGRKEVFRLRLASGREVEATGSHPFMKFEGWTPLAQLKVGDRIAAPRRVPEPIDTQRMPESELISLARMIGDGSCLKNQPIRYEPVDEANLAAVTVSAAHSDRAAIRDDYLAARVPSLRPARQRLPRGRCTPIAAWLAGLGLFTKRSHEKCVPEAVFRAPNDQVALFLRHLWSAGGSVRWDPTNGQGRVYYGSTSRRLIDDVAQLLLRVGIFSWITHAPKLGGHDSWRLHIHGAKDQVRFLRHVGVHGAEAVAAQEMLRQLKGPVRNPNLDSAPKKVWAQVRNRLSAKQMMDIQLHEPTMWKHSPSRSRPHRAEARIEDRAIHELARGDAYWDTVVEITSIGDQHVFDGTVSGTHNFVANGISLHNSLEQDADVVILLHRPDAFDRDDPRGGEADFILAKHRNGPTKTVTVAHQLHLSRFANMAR

Chain of Paired box protein Pax-8 (Q06710 whole entry): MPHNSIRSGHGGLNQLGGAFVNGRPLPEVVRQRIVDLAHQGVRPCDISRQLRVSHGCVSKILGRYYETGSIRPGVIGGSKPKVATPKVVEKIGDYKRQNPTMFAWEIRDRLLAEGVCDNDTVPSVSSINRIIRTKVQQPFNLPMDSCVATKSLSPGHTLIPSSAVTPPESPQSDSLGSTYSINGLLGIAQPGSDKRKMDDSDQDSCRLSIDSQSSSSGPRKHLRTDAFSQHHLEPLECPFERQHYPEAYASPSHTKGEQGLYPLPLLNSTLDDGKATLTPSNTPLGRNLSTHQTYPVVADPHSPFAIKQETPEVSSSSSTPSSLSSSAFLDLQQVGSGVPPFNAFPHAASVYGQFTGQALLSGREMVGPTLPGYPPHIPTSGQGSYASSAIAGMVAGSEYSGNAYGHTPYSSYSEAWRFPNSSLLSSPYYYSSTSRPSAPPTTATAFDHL
Chain of Disintegrin and metalloproteinase domain-containing protein 17 (P78536 whole entry, the tested form may be a part): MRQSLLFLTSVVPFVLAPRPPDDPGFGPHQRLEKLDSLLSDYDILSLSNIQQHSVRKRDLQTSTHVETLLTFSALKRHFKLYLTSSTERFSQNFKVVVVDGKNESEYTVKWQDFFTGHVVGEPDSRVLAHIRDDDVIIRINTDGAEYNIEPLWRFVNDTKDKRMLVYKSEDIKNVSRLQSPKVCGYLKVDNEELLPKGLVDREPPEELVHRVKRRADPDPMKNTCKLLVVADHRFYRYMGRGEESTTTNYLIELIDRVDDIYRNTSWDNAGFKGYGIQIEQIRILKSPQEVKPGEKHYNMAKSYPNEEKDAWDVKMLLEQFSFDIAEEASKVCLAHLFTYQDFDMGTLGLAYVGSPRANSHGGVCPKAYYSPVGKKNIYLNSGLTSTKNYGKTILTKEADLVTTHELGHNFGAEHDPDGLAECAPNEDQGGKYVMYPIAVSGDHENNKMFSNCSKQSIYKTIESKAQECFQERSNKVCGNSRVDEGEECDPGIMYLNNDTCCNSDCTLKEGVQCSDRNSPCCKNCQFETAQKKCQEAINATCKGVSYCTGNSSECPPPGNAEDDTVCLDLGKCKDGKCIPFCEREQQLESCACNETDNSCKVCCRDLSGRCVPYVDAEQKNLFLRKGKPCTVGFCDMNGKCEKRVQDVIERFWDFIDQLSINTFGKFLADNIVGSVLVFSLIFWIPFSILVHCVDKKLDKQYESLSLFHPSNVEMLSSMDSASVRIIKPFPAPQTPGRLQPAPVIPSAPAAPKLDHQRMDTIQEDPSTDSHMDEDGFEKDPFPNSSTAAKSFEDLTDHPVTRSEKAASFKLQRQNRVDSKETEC
Chain of Tyrosyl-DNA phosphodiesterase 2 (O95551 whole entry): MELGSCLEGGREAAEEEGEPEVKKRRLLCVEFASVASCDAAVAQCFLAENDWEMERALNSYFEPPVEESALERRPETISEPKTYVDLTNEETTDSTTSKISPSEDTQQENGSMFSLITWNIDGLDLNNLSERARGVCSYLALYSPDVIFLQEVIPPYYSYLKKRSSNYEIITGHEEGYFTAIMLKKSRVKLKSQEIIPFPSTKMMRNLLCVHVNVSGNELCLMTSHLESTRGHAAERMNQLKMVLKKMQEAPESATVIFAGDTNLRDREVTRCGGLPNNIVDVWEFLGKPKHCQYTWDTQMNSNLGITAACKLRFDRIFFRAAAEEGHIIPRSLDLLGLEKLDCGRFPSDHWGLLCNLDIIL
Chain of Endoplasmic reticulum aminopeptidase 1 (Q9NZ08 whole entry): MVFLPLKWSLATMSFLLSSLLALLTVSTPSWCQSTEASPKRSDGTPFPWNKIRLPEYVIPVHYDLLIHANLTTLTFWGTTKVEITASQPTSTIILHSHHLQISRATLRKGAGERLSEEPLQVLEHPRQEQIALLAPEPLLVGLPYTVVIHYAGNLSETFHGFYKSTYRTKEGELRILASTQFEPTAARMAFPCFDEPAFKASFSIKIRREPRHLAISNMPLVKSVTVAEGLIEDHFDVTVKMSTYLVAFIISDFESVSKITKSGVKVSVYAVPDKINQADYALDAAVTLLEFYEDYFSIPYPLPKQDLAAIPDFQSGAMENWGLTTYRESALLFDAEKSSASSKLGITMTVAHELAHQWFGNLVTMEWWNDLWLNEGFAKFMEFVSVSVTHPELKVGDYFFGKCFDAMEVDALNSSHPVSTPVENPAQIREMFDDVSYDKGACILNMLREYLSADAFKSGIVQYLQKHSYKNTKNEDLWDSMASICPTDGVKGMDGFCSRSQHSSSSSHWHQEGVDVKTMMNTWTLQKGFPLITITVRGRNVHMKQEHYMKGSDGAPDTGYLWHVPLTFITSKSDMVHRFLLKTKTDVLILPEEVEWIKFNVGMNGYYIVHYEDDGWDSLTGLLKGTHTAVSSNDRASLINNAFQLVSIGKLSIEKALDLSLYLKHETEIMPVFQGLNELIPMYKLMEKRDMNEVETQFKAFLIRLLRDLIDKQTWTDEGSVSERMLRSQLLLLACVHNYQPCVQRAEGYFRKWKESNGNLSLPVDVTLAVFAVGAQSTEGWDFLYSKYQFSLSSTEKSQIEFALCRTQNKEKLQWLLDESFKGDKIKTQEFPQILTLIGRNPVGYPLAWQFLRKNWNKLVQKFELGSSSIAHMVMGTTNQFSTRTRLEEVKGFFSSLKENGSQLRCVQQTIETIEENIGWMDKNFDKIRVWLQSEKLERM

CCCCCc1nnc(NC(=O)C2=COCCO2)s1
EC50 [1]: > 67.6 µM (inactive)

O=C(c1cc2c(s1)CCCCCC2)N1CCC2(CC1)OCCO2
IC50 [2]: > 69.5 µM (inactive) | IC50 [3]: > 69.5 µM (inactive)

COc1ccc2nc(C)cc(N/N=C/c3cccc(OC)c3O)c2c1
IC50 [4]: > 20 µM (inactive) | EC50 [5]: > 120 µM (not active) | IC50 [6]: 51.8 µM (active) | EC50 [7]: 7.76 µM (active) | CC50 [8]: 23.4 µM (active) | AC50 [9]: 32.4 µM (active) | AC50 (Paired box protein Pax-8): 12 µM (active) | EC50 [10]: > 120 µM (not active)

CO[C@H]1CN(C)C(=O)c2cc(NC(=O)Nc3ccc(Cl)c(Cl)c3)ccc2OC[C@@H](C)NC[C@@H]1C
AC50 [11]: > 52 µM (inactive) | AC50 [12]: 21.6 µM (active) | AC50 [13]: 48 µM (active) | AC50 [14]: > 52 µM (inactive)

c1ccc(COc2nnc(-c3ccccc3)o2)cc1
IC90 [15]: 8 µM (active) | AC50 [16]: > 52 µM (inactive) | IC90 [17]: 8 µM (active)

COc1ccc2c3c([nH]c2c1)[C@H](CO)N(Cc1ccccc1OC)CC31CN(C)C1
AC50 [18]: 14.9 µM (active)

COc1cc2c(cc1OC)-c1c3c(cc4c1[C@@H](C2)N(C)CC4)OCO3
AC50 [19]: 1.18 µM (active) | GI50 (P388): 8.53 µM (inactive) | IC50 [20]: 7.83 µM (active) | GI50 (SN12K1): 6.1 µM (inactive) | AC50 [21]: 116 µM (active) | AC50 [22]: 2.09 µM (active) | GI50 (P388/ADR): 7.08 µM (inactive) | EC50 (Protein RecA): 0.952 µM (active) | AC50 (Caspase-6): 5.63 µM (active) | AC50 [23]: 26.7 µM (active)
